In brackets after ≈: the same amount, converted by molar mass. Like-named read-outs stand apart in the source and are kept apart here.
Experiments:
Bacillus subtilis 168CA = experiment: Minimum Inhibitory Concentration (MIC) testing, broth microdilution, Bacillus subtilis; type: cell-based; settings: Bacillus subtilis 168CA; read-out: Bacillus subtilis MICs Activity
Method in brief: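 MICs were scored A (≦8 μg/ml), B (16–64 μg/ml) or C (>64 μg/ml), read as the lowest concentration preventing visible growth by eye and spectrophotometry. Plates incubated overnight (16–20 h) at 37 °C, inoculum OD 0.09 diluted 1:100 in 2× broth, per NCCLS guidelines.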

[1] = tested on: Staphylococcus aureus ATCC29213; experiment: Minimum Inhibitory Concentration (MIC) testing, broth microdilution, Staphylococcus aureus; type: cell-based; settings: Staphylococcus aureus ATCC29213; read-out: Staphylococcus aureus MICs Activity
Method in brief: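 Broth microdilution per NCCLS M7-A5 in Mueller Hinton broth, with compound in 1.6% DMSO and inoculum at OD 0.09 diluted 1:100. Plates incubated 16–20 h at 37°C. MIC is the lowest concentration with no visible growth; scored A ≤8, B 16–64, C >64 μg/ml.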

[2] = tested on: various bacterial species; experiment: Minimum Inhibitory Concentration (MIC) testing, broth microdilution, other bacterial species; type: cell-based
Protocol: Compounds of this invention were tested for antimicrobial activity by susceptibility testing in liquid media. MICs for compounds against each strain were determined by a broth microdilution method according to the National Committee for Clinical Laboratory Standards (NCCLS) guidelines. (NCCLS. 2000. Methods for dilution antimicrobial susceptibility tests for bacteria that grow aerobically—fifth edition. Approved standard M7-A5. NCCLS, Wayne, Pa.)
Briefly, test compounds are prepared in 100 μl of 1.6% DMSO solution in multiwell plates. Several bacterial colonies from a freshly streaked plate are transferred to an appropriate rich broth, such as Mueller Hinton. The cell suspension is adjusted to an optical density of 0.09 and further diluted 1:100 with warm 2× broth. This cell suspension is dispensed into the wells containing compound solution so that the final volume is 200 μl. The plates are incubated overnight (16-20 hours) at 37° C. and turbidity is scored by eye and quantified spectrophotometrically. The MIC is defined as the lowest concentration inhibiting visible growth.
Some of the Examples were also tested for activity against other bacterial species. […] Activities were again scored as ‘A’ if the MIC was ≦8 micrograms/ml, ‘B’ if the MIC was 16 to 64 micrograms/ml and ‘C’ if the MIC was greater than 64 micrograms/ml.

Staphylococcus aureus = experiment: mouse Staphylococcus aureus septicaemia model of infection; type: in vivo; settings: survival at day 7 of infected mice; single intraperitoneal dose of 100 mg/kg at 1 hour after intraperitoneal inoculation with a lethal dose of Staphylococcus aureus
Protocol: Some of the Examples were also tested for activity in a mouse Staphylococcus aureus septicaemia model of infection.

[3] = Staphylococcus epidermidis, ATCC12228, read-out: MIC Activity Staphylococcus epidermidis ATCC 12228
[4] = Staphylococcus haemolyticus, ATCC29970, read-out: MIC Activity Staphylococcus haemolyticus ATCC 29970
[5] = Bacillus cereus, ATCC14579, read-out: MIC Activity Bacillus cereus ATCC 14579
[6] = Staphylococcus saprophyticus, ATCC15305, read-out: MIC Activity Staphylococcus saprophyticus ATCC 15305

Structure (SMILES) | MIC (Bacillus subtilis 168CA) [µg/mL] | MIC [1] [µg/mL] | melting point [°C] | MIC [2, 3] [µg/mL] | MIC [2, 4] [µg/mL] | Percent survival (Staphylococcus aureus) [%] | MIC [2, 5] [µg/mL] | MIC [2, 6] [µg/mL]
NC(=O)c1c(F)ccc(OCc2nc(-c3ccc(O)cc3)no2)c1F [Example 242, 2,6-Difluoro-3-[3-(4-hydroxyphenyl)-1,2,4-oxadiazol-5-yl]methoxybenzenecarboxamide] | < 8 | < 8 | 209 to 210 | < 8 | < 8 |  |  | 
Cc1ccc(-c2noc(COc3ccc(F)c(C(N)=O)c3F)n2)cc1 [Example 247, 2,6-Difluoro-3-[3-(4-methylphenyl)-1,2,4-oxadiazol-5-yl]methoxybenzenecarboxamide] | < 8 | < 8 |  |  |  | 100 |  | 
CCCCOC(=O)C=CCOc1ccc(F)c(C(N)=O)c1F [Example 180, Butyl 4-[3-(aminocarbonyl)-2,4-difluorophenoxy]-2-butenoate] | < 8 | 16 to 64 (≈ 51.1 to 204 µM) | < 40 |  |  |  |  | 
C#CCCCCCCCCOc1cccc(C(N)=O)c1 [Example 67, 3-(9-Decynyloxy)benzenecarboxamide] | < 8 | < 8 | 111 to 112 |  |  |  |  | 
CCCCCCOc1c(F)cc(F)c(C(N)=O)c1F [Example 79, 2,4,6-Trifluoro-3-(hexyloxy)benzenecarboxamide] | 16 to 64 (≈ 58.1 to 232 µM) | 16 to 64 (≈ 58.1 to 232 µM) | 89 to 90 |  |  |  |  | 
C#CCCCCCCCCCCOc1cccc(C(N)=O)c1 [Example 66, 3-(11-Dodecynyloxy)benzenecarboxamide] | < 8 | < 8 | 106 to 108 |  |  |  |  | 
CCCCCCCCCOc1ccc(Cl)c(C(N)=O)c1F [Example 76, 6-Chloro-2-fluoro-3-(nonyloxy)benzenecarboxamide] | < 8 | < 8 | 75 to 77 |  |  |  |  | 
NC(=O)c1cccc(OCc2cccc(O)c2)c1 [Example 173, 3-[(3-Hydroxybenzyl)oxy]benzenecarboxamide] | > 64 | > 64 | 122 to 123 |  |  |  |  | 
NC(=O)c1c(F)ccc(OCc2nc(-c3ccc(Cl)cc3)no2)c1F [Example 246, 3-[3-(4-Chlorophenyl)-1,2,4-oxadiazol-5-yl]methoxy-2,6-difluorobenzenecarboxamide] | < 8 | < 8 |  | < 8 | < 8 | 100 | < 8 | < 8
NC(=O)c1cccc(OCCCCC/C=C\c2ccsc2)c1 [Example 62, 3-{[(Z)-7-(3-Thienyl)-6-heptenyl]oxy}benzenecarboxamide] | < 8 | < 8 | 71 to 73 |  |  |  |  | 
COC(=O)C=CCOc1ccc(F)c(C(N)=O)c1F [Example 179, Methyl 4-[3-(aminocarbonyl)-2,4-difluorophenoxy]-2-butenoate] | > 64 | > 64 | 122 to 123 |  |  |  |  | 
NC(=O)c1cccc(OCCCCC/C=C\c2ccc(Cl)o2)c1 [Example 64, 3-{[(Z)-7-(5-Chloro-2-furyl)-6-heptenyl]oxy}benzenecarboxamide] | < 8 | < 8 | 53 to 56 |  |  |  |  | 
NC(=O)c1c(F)ccc(OCc2nc3cc(-c4ccncc4)ccc3s2)c1F [Example 232, 2,6-Difluoro-3-[5-(4-pyridinyl)-1,3-benzothiazol-2-yl]methoxybenzenecarboxamide] | 16 to 64 (≈ 40.3 to 161 µM) | < 8 | 255 to 258 |  |  |  |  | 
NC(=O)c1c(F)ccc(OCc2nc3ccc(Cl)cc3s2)c1F [Example 227, 3-[(6-Chloro-1,3-benzothiazol-2-yl)methoxy]-2,6-difluorobenzenecarboxamide] | < 8 | < 8 | 190 to 191 |  |  |  |  | 
COc1ccc2nc(COc3ccc(F)c(C(N)=O)c3F)sc2c1 [Example 224, 2,6-Difluoro-3-[(6-methoxy-1,3-benzothiazol-2-yl)methoxy]benzenecarboxamide] | 16 to 64 (≈ 45.7 to 183 µM) | > 64 | 190 to 192 |  |  |  |  | 
Cc1cccc2sc(COc3ccc(F)c(C(N)=O)c3F)nc12 [Example 228, 2,6-Difluoro-3-[(4-methyl-1,3-benzothiazol-2-yl)methoxy]benzenecarboxamide] | < 8 | 16 to 64 (≈ 47.9 to 191 µM) | 201 to 202 |  |  |  |  | 
CCCCCCCCCOc1ccc(F)c(C(N)=O)c1Cl [Example 78, 2-Chloro-6-fluoro-3-(nonyloxy)benzenecarboxamide] | < 8 | < 8 | 64 to 66 |  |  |  |  | 
NC(=O)c1ccnc(OCc2nc3cc(Cl)ccc3s2)c1 [Example 222, 2-[(5-Chloro-1,3-benzothiazol-2-yl)methoxy]isonicotinamide] | < 8 | < 8 | 220 to 222 |  |  |  |  | 
NC(=O)c1c(F)ccc(OCc2cc3cc(C(F)(F)F)ccc3s2)c1F [Example 208, 2,6-Difluoro-3-[5-(trifluoromethyl)-1-benzothiophen-2-yl]methoxybenzenecarboxamide] | < 8 | < 8 | 150 to 152 |  |  |  | < 8 | < 8
CCCCCCCCCOc1cc(C(N)=O)ccn1 [Example 94, 2-(Nonyloxy)isonicotinamide] | < 8 | < 8 | 108 to 110 |  |  |  |  | 
NC(=O)c1c(F)ccc(OCc2nc(-c3ccc(Cl)cc3)cs2)c1F [Example 106, 3-[4-(4-Chloro-phenyl)-thiazol-2-ylmethoxy]2,6-difluoro-benzamide] | < 8 | < 8 |  | < 8 | < 8 | 100 | < 8 | < 8
N#CCOc1ccc(F)c(C(N)=O)c1F [Example 225, 3-(Cyanomethoxy)-2,6-difluorobenzenecarboxamide] | > 64 | > 64 | 122 to 123 |  |  |  |  | 
CCCc1ccc2nc(COc3ccc(F)c(C(N)=O)c3F)sc2c1 [Example 231, 2,6-Difluoro-3-[(6-propyl-1,3-benzothiazol-2-yl)methoxy]benzenecarboxamide] | < 8 | < 8 | 244 to 246 |  |  |  |  | 
COc1ccc(-c2noc(COc3ccc(F)c(C(N)=O)c3F)n2)cc1 [Example 241, 2,6-Difluoro-3-[3-(4-methoxyphenyl)-1,2,4-oxadiazol-5-yl]methoxybenzenecarboxamide] | < 8 | < 8 |  |  |  | 100 |  | 
CCCC/C=C\CCCCOc1cccc(C(N)=O)c1 [Example 45, 3-[(Z)-5-Decenyloxy]benzenecarboxamide] | < 8 | < 8 | 98 to 100 |  |  |  |  | 
CCc1cccc2sc(COc3ccc(F)c(C(N)=O)c3F)nc12 [Example 223, 3-[(4-Ethyl-1,3-benzothiazol-2-yl)methoxy]-2,6-difluorobenzenecarboxamide] | < 8 | < 8 | 184 to 186 |  |  |  |  | 
Cc1cncc(COc2cccc(C(N)=O)c2)c1 [Example 170, 3-[(5-Methyl-3-pyridinyl)methoxy]benzenecarboxamide] | > 64 | > 64 | 152 to 154 |  |  |  |  | 
CC1CC1COc1cccc(C(N)=O)c1 (stereo not drawn) [Example 169, 3-[(2-Methylcyclopropyl)methoxy]benzenecarboxamide] | > 64 | > 64 | 119 to 121 |  |  |  |  | 
